Measured values published in patent publication US20240409585A1, “MACROCYCLIC IMMUNOMODULATORS” (priority 2021, published 2024).
Bridge positions count the residues as written; N and C are the ends. Square brackets hold non-standard residues; d marks the D form. Peptide text beside a SMILES is read from it. * marks the point of attachment. ξ: configuration not given here. Bip = N[C@@H](Cc1ccc(-c2ccccc2)cc1)C(=O)O; Phe(3-Me) = Cc1cccc(C[C@H](N)C(=O)O)c1; 4Pal = N[C@@H](Cc1ccncc1)C(=O)O; Cha = N[C@@H](CC1CCCCC1)C(=O)O; AllylGly = C=CC[C@H](N)C(=O)O; Pip = O=C(O)[C@@H]1CCCCN1; Carboxymethyl = O=C(O)C*; NMeA = CN[C@@H](C)C(=O)O; Orn = NCCC[C@H](N)C(=O)O; Dab = NCC[C@H](N)C(=O)O; Dap = NC[C@H](N)C(=O)O; ξC = NC(CS)C(=O)O; Acm = CC(=O)NC*

These compounds were tested against T1, PE-labeled human PD-L1-Ig binding to Jurkat cell line over-expressing human PD-1 (Jurkat-PD-1) (Homo sapiens, UniProt Q15116) (assay: Jurkat-PD-1 Cell Binding High-Content Screening Assay (CBA): Method 1). Conditions: Jurkat-hPD-1 cells, PE-labeled PD-L1-Ig 20 nM final; read-out: Jurkat HPDL1 PD1 IC50 (uM) (Method 1).
T1 construct: expressed in transfected cells; host or cells: Jurkat
T1 sequence (Q15116 25-288): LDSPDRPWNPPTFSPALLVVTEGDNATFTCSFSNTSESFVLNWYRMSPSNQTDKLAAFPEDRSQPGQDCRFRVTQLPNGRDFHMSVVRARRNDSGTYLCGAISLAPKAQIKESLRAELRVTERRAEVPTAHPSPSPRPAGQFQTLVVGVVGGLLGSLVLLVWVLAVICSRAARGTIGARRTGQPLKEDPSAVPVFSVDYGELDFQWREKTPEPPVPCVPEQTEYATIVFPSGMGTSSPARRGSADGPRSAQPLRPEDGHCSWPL

Structure (SMILES) | IC50 [µM]
C=CC[C@@H]1NC(=O)[C@H](Cc2cccc(C)c2)NC(=O)[C@H](CC(=O)O)NC(=O)[C@H](Cc2ccncc2)NC(=O)[C@H](Cc2ccc(OCC(=O)O)cc2)NC(=O)CSCC(C(=O)NCC(N)=O)NC(=O)[C@H](CC=C)NC(=O)[C@H](C(C)C)NC(=O)[C@H](CC(C)C)NC(=O)[C@H](CC(N)=O)NC(=O)[C@@H](CC(C)C)NC(=O)[C@H](C)N(C)C(=O)[C@H](C(C)C)NC(=O)[C@H](Cc2ccc(-c3ccccc3)cc2)NC1=O (stereo partly drawn) [Compound 1880] ({CH2CO}-Y(Carboxymethyl)[4Pal]D[Phe(3-Me)][AllylGly][Bip]V[NMeA][dL]NLV[AllylGly][ξC]G-NH2; thioether N-14) | 0.05
C=CC[C@@H]1NC(=O)[C@H](CC(C)C)NC(=O)[C@H](CC(N)=O)NC(=O)[C@@H](CC(C)C)NC(=O)[C@H](C)N(C)C(=O)[C@H](CC=C)NC(=O)[C@H](Cc2ccc(-c3ccccc3)cc2)NC(=O)[C@H](CC(C)C)NC(=O)[C@H](Cc2cccc(C)c2)NC(=O)[C@H](CC(=O)O)NC(=O)[C@H](Cc2ccncc2)NC(=O)[C@H](Cc2ccc(OCC(=O)O)cc2)NC(=O)CSCC(C(=O)NCC(N)=O)NC(=O)[C@H](CO)NC1=O (stereo partly drawn) [Compound 1881] ({CH2CO}-Y(Carboxymethyl)[4Pal]D[Phe(3-Me)]L[Bip][AllylGly][NMeA][dL]NL[AllylGly]S[ξC]G-NH2; thioether N-14) | 0.1
C=CC[C@@H]1NC(=O)[C@H](CC(C)C)NC(=O)[C@H](CC(N)=O)NC(=O)[C@@H](CC(C)C)NC(=O)[C@H](C)N(C)C(=O)[C@H](C(C)C)NC(=O)[C@H](Cc2ccc(-c3ccccc3)cc2)NC(=O)[C@H](CC=C)NC(=O)[C@H](Cc2cccc(C)c2)NC(=O)[C@H](CC(=O)O)NC(=O)[C@H](Cc2ccncc2)NC(=O)[C@H](Cc2ccc(OCC(=O)O)cc2)NC(=O)CSCC(C(=O)NCC(N)=O)NC(=O)[C@H](CO)NC1=O (stereo partly drawn) [Compound 1882] ({CH2CO}-Y(Carboxymethyl)[4Pal]D[Phe(3-Me)][AllylGly][Bip]V[NMeA][dL]NL[AllylGly]S[ξC]G-NH2; thioether N-14) | 0.03
C=CC[C@@H]1NC(=O)[C@H](Cc2cccc(C)c2)NC(=O)[C@H](CC(=O)O)NC(=O)[C@H](Cc2ccncc2)NC(=O)[C@H](Cc2ccc(OCC(=O)O)cc2)NC(=O)CSCC(C(=O)NCC(N)=O)NC(=O)[C@H](CO)NC(=O)[C@H](C(C)C)NC(=O)[C@H](CC(C)C)NC(=O)[C@H](CC(N)=O)NC(=O)[C@@H](CC(C)C)NC(=O)[C@H](C)N(C)C(=O)[C@H](CC=C)NC(=O)[C@H](Cc2ccc(-c3ccccc3)cc2)NC1=O (stereo partly drawn) [Compound 1883] ({CH2CO}-Y(Carboxymethyl)[4Pal]D[Phe(3-Me)][AllylGly][Bip][AllylGly][NMeA][dL]NLVS[ξC]G-NH2; thioether N-14) | 0.06
C=CC[C@H](NC(=O)C1CSCC(=O)N[C@@H](Cc2ccc(OCC(=O)O)cc2)C(=O)N[C@@H](CC=C)C(=O)N[C@@H](CC(=O)O)C(=O)N[C@@H](Cc2cccc(C)c2)C(=O)N[C@@H](CC(C)C)C(=O)N[C@@H](Cc2ccc(-c3ccccc3)cc2)C(=O)N[C@@H](C(C)C)C(=O)N(C)[C@@H](C)C(=O)N[C@H](CC(C)C)C(=O)N[C@@H](CC(N)=O)C(=O)N[C@@H](CC(C)C)C(=O)N[C@@H](C(C)C)C(=O)N[C@@H](CO)C(=O)N1)C(N)=O (stereo partly drawn) [Compound 1884] ({CH2CO}-Y(Carboxymethyl)[AllylGly]D[Phe(3-Me)]L[Bip]V[NMeA][dL]NLVS[ξC][AllylGly]-NH2; thioether N-14) | 0.03
CC(=O)NCSC[C@@H]1NC(=O)[C@H](Cc2cccc(C)c2)NC(=O)[C@H](CC(=O)O)NC(=O)[C@H](Cc2ccncc2)NC(=O)[C@H](Cc2ccc(OCC(=O)O)cc2)NC(=O)CSCC(C(=O)NCC(N)=O)NC(=O)[C@H](CSCNC(C)=O)NC(=O)[C@H](C(C)C)NC(=O)[C@H](CC(C)C)NC(=O)[C@H](CC(N)=O)NC(=O)[C@@H](CC(C)C)NC(=O)[C@H](C)N(C)C(=O)[C@H](C(C)C)NC(=O)[C@H](Cc2ccc(-c3ccccc3)cc2)NC1=O (stereo partly drawn) [Compound 1885] ({CH2CO}-Y(Carboxymethyl)[4Pal]D[Phe(3-Me)]C(Acm)[Bip]V[NMeA][dL]NLVC(Acm)[ξC]G-NH2; thioether N-14) | 0.11
CC(=O)NCSC[C@@H]1NC(=O)[C@H](CC(C)C)NC(=O)[C@H](CC(N)=O)NC(=O)[C@@H](CC(C)C)NC(=O)[C@H](C)N(C)C(=O)[C@H](CSCNC(C)=O)NC(=O)[C@H](Cc2ccc(-c3ccccc3)cc2)NC(=O)[C@H](CC(C)C)NC(=O)[C@H](Cc2cccc(C)c2)NC(=O)[C@H](CC(=O)O)NC(=O)[C@H](Cc2ccncc2)NC(=O)[C@H](Cc2ccc(OCC(=O)O)cc2)NC(=O)CSCC(C(=O)NCC(N)=O)NC(=O)[C@H](CO)NC1=O (stereo partly drawn) [Compound 1886] ({CH2CO}-Y(Carboxymethyl)[4Pal]D[Phe(3-Me)]L[Bip]C(Acm)[NMeA][dL]NLC(Acm)S[ξC]G-NH2; thioether N-14) | 0.14
CC(=O)NCSC[C@@H]1NC(=O)[C@H](CC(C)C)NC(=O)[C@H](CC(N)=O)NC(=O)[C@@H](CC(C)C)NC(=O)[C@H](C)N(C)C(=O)[C@H](C(C)C)NC(=O)[C@H](Cc2ccc(-c3ccccc3)cc2)NC(=O)[C@H](CSCNC(C)=O)NC(=O)[C@H](Cc2cccc(C)c2)NC(=O)[C@H](CC(=O)O)NC(=O)[C@H](Cc2ccncc2)NC(=O)[C@H](Cc2ccc(OCC(=O)O)cc2)NC(=O)CSCC(C(=O)NCC(N)=O)NC(=O)[C@H](CO)NC1=O (stereo partly drawn) [Compound 1887] ({CH2CO}-Y(Carboxymethyl)[4Pal]D[Phe(3-Me)]C(Acm)[Bip]V[NMeA][dL]NLC(Acm)S[ξC]G-NH2; thioether N-14) | 0.25
CC(=O)NCSC[C@@H]1NC(=O)[C@H](Cc2cccc(C)c2)NC(=O)[C@H](CC(=O)O)NC(=O)[C@H](Cc2ccncc2)NC(=O)[C@H](Cc2ccc(OCC(=O)O)cc2)NC(=O)CSCC(C(=O)NCC(N)=O)NC(=O)[C@H](CO)NC(=O)[C@H](C(C)C)NC(=O)[C@H](CC(C)C)NC(=O)[C@H](CC(N)=O)NC(=O)[C@@H](CC(C)C)NC(=O)[C@H](C)N(C)C(=O)[C@H](CSCNC(C)=O)NC(=O)[C@H](Cc2ccc(-c3ccccc3)cc2)NC1=O (stereo partly drawn) [Compound 1888] ({CH2CO}-Y(Carboxymethyl)[4Pal]D[Phe(3-Me)]C(Acm)[Bip]C(Acm)[NMeA][dL]NLVS[ξC]G-NH2; thioether N-14) | 0.2

Continued, values first:

IC50 [µM] | Structure (SMILES)
0.03 | CC(=O)NCSC[C@H](NC(=O)C1CSCC(=O)N[C@@H](Cc2ccc(OCC(=O)O)cc2)C(=O)N[C@@H](CSCNC(C)=O)C(=O)N[C@@H](CC(=O)O)C(=O)N[C@@H](Cc2cccc(C)c2)C(=O)N[C@@H](CC(C)C)C(=O)N[C@@H](Cc2ccc(-c3ccccc3)cc2)C(=O)N[C@@H](C(C)C)C(=O)N(C)[C@@H](C)C(=O)N[C@H](CC(C)C)C(=O)N[C@@H](CC(N)=O)C(=O)N[C@@H](CC(C)C)C(=O)N[C@@H](C(C)C)C(=O)N[C@@H](CO)C(=O)N1)C(N)=O (stereo partly drawn) [Compound 1889] ({CH2CO}-Y(Carboxymethyl)C(Acm)D[Phe(3-Me)]L[Bip]V[NMeA][dL]NLVS[ξC]C(Acm)-NH2; thioether N-14)
0.15 | Cc1cccc(C[C@@H]2NC(=O)[C@H](CC(=O)O)NC(=O)[C@H](Cc3ccc(OCC(=O)O)cc3)NC(=O)[C@H](CN)NC(=O)CSC[C@@H](C(N)=O)NC(=O)[C@H](CCCN)NC(=O)[C@H](C(C)C)NC(=O)[C@H](CC3CCCCC3)NC(=O)[C@H](CCN)NC(=O)[C@@H](CC(C)C)NC(=O)[C@@H]3CCCCN3C(=O)[C@H](Cc3ccc(OCC(=O)O)cc3)NC(=O)[C@H](Cc3ccc(-c4ccccc4)cc3)NC(=O)[C@H](Cc3ccc(OCC(=O)O)cc3)NC2=O)c1 [Compound 1890] ({CH2CO}-[Dap]Y(Carboxymethyl)D[Phe(3-Me)]Y(Carboxymethyl)[Bip]Y(Carboxymethyl)[Pip][dL][Dab][Cha]V[Orn]C-NH2; thioether N-14)
0.15 | Cc1cccc(C[C@@H]2NC(=O)[C@H](CC(=O)O)NC(=O)[C@H](Cc3ccc(OCC(=O)O)cc3)NC(=O)[C@H](CN)NC(=O)CSC[C@@H](C(N)=O)NC(=O)[C@H]([C@@H](C)O)NC(=O)[C@H](C(C)C)NC(=O)[C@H](CC3CCCCC3)NC(=O)[C@H](CCN)NC(=O)[C@@H](CC(C)C)NC(=O)[C@@H]3CCCCN3C(=O)[C@H](Cc3ccc(OCC(=O)O)cc3)NC(=O)[C@H](Cc3ccc(-c4ccccc4)cc3)NC(=O)[C@H](Cc3ccc(OCC(=O)O)cc3)NC2=O)c1 [Compound 1891] ({CH2CO}-[Dap]Y(Carboxymethyl)D[Phe(3-Me)]Y(Carboxymethyl)[Bip]Y(Carboxymethyl)[Pip][dL][Dab][Cha]VTC-NH2; thioether N-14)
0.06 | Cc1cccc(C[C@@H]2NC(=O)[C@H](CC(=O)O)NC(=O)[C@H](Cc3ccc(OCC(=O)O)cc3)NC(=O)[C@H](CN)NC(=O)CSC[C@@H](C(N)=O)NC(=O)[C@H](CO)NC(=O)[C@H](C(C)C)NC(=O)[C@H](CC3CCCCC3)NC(=O)[C@H](CCN)NC(=O)[C@@H](CC(C)C)NC(=O)[C@@H]3CCCCN3C(=O)[C@H](Cc3ccc(OCC(=O)O)cc3)NC(=O)[C@H](Cc3ccc(-c4ccccc4)cc3)NC(=O)[C@H](Cc3ccc(OCC(=O)O)cc3)NC2=O)c1 [Compound 1892] ({CH2CO}-[Dap]Y(Carboxymethyl)D[Phe(3-Me)]Y(Carboxymethyl)[Bip]Y(Carboxymethyl)[Pip][dL][Dab][Cha]VSC-NH2; thioether N-14)
0.26 | Cc1cccc(C[C@@H]2NC(=O)[C@H](CC(=O)O)NC(=O)[C@H](Cc3ccc(OCC(=O)O)cc3)NC(=O)[C@H](CN)NC(=O)CSC[C@@H](C(N)=O)NC(=O)[C@H](CC(=O)O)NC(=O)[C@H](C(C)C)NC(=O)[C@H](CC3CCCCC3)NC(=O)[C@H](CCN)NC(=O)[C@@H](CC(C)C)NC(=O)[C@@H]3CCCCN3C(=O)[C@H](Cc3ccc(OCC(=O)O)cc3)NC(=O)[C@H](Cc3ccc(-c4ccccc4)cc3)NC(=O)[C@H](Cc3ccc(OCC(=O)O)cc3)NC2=O)c1 [Compound 1893] ({CH2CO}-[Dap]Y(Carboxymethyl)D[Phe(3-Me)]Y(Carboxymethyl)[Bip]Y(Carboxymethyl)[Pip][dL][Dab][Cha]VDC-NH2; thioether N-14)
